Oligonucleotides are written 5' to 3', each unit as a sugar letter and its base; * is a phosphorothioate linkage, no mark a phosphodiester; rarer units and linkages stand in square brackets, end groups in braces. Plain capitals give the bases only. m = 2'-O-methyl; f = 2'-fluoro
Tested on: factor B mRNA transcript
Assay: Knockdown of factor B expression in HepG2 cells using siRNAs, dose response experiments (DRC)
Assay type: cell-based, human
Settings: for Max Factor B inhibition (%): dose response up to 100 nM
Protocol: HepG2 cells were obtained from ATCC (ATCC in partnership with LGC Standards, Wesel, Germany, cat. #ATCC-HB-8065) and cultured in MEM Eagle (#M2279, Sigma-Aldrich, Germany), supplemented to contain 10% fetal calf serum (#1248D, Biochrom GmbH, Berlin, Germany), 1×non-essential amino acids (#K0293; Biochrom, Berlin, Germany), 4 mM L-Glutamine (#K0283, Biochrom, Berlin, Germany) and 100 U/ml Penicillin/100 μg/ml Streptomycin (#A2213, Biochrom GmbH, Berlin, Germany) at 37° C. in an atmosphere with 5% CO2 in a humidified incubator.
24 siRNAs were designed and synthesized to target different regions of the factor B mRNA transcript. In this experiment, the sense strand of each siRNA contained 18 nucleotides identical to a target region sequence on the factor B transcript (SEQ ID NO: 75), and one additional adenine nucleotide at the 3′ end. Additionally, in this experiment, the antisense strand contained 18 nucleotides complementary to a target region sequence on the factor B transcript (SEQ ID NO: 75), and one additional uracil nucleotide at the 5′ end, and 2 additional uracil nucleotides at the 3′ end.
Transfection of siRNA was carried out with Lipofectamine RNAiMax (Invitrogen/Life Technologies, Karlsruhe, Germany) according to manufacturer's instructions for reverse transfection.
Each siRNA was tested using dose response experiments (DRC) in HepG2 cells. Dose-response experiments were done with siRNA in 10 concentrations transfected in quadruplicates, starting at 100 nM in 6-fold dilutions steps down to ˜10 fM. Mock transfected cells served as negative controls.
For each well, the target mRNA level was normalized to the respective GAPDH mRNA level. The activity of a given siRNA was expressed as percent mRNA concentration of the respective target (normalized to GAPDH mRNA) in treated cells, relative to the target mRNA concentration (normalized to GAPDH mRNA) averaged across mock transfected wells (DRCs).
Dose response experiments described above were repeated in a subset of siRNAs shown in Table 9, specifically siRNAs 2, 7, 8, and 3.

[1] = reverse transfection, 10 concentrations from 100 nM in 6-fold dilutions, factor B mRNA normalized to GAPDH, relative to mock, Table 8
[2] = additional (repeated) dose response experiments, Table 10

| Substance | Max Factor B inhibition (%) (Table 8) | IC20 [1] | IC50 [1] | IC80 [1] | IC20 [2] | IC50 [2] | IC80 [2] | Max KD [%] [2] |
| --- | --- | --- | --- | --- | --- | --- | --- | --- |
| 1 (sense mC*mC*fUmAmCmUfAfCfAmAmUfGmUmGmAmGfUmGmA; antisense mU*fC*mAmCmUmCmAmCmAmUmUmGmUfAmGmUmAmGmG*mU*mU; siRNA) [compound 1] | 91.04% | 0.03 nM | 0.54 nM | 19.8 nM |  |  |  |  |
| 2 (sense mC*mU*fUmCmUmGfGfCfUmUmCfUmAmCmCmCfGmUmA; antisense mU*fA*mCmGmGmGmUmAmGmAmAmGmCfCmAmGmAmAmG*mU*mU; siRNA) [compound 2] | 90.18% |  |  | 7.07 nM | 0.021 nM | 0.0887 nM | 0.865 nM | 83.5% |
| 3 (sense mU*mU*fCmUmGmGfCfUfUmCmUfAmCmCmCmGfUmAmA; antisense mU*fU*mAmCmGmGmGmUmAmGmAmAmGfCmCmAmGmAmA*mU*mU; siRNA) [compound 3] | 89.76% | 0.02 nM | 0.29 nM | 12 nM | 0.0722 nM | 0.204 nM | 0.886 nM | 87% |
| 4 (sense mC*mU*fGmCmUmAfUfGfAmCmGfGmUmUmAmCfAmCmA; antisense mU*fG*mUmGmUmAmAmCmCmGmUmCmAfUmAmGmCmAmG*mU*mU; siRNA) [compound 4] | 88.29% | 0.05 nM | 0.48 nM | 10.9 nM |  |  |  |  |
| 5 (sense mG*mG*fGmGmAmGfUfAfGmUmGfGmAmUmGmUfCmUmA; antisense mU*fA*mGmAmCmAmUmCmCmAmCmUmAfCmUmCmCmCmC*mU*mU; siRNA) [compound 5] | 86.90% | 0.1 nM | 0.67 nM | 9.65 nM |  |  |  |  |
| 6 (sense mU*mG*fUmGmGmUfGfUfCmUmGfAmGmUmAmCfUmUmA; antisense mU*fA*mAmGmUmAmCmUmCmAmGmAmCfAmCmCmAmCmA*mU*mU; siRNA) [compound 6] | 85.34% | 0.03 nM | 0.37 nM | 16.1 nM |  |  |  |  |
| 7 (sense mU*mA*fCmGmUmGfUfGfUmCmCfUmUmCmUmGfGmCmA; antisense mU*fG*mCmCmAmGmAmAmGmGmAmCmAfCmAmCmGmUmA*mU*mU; siRNA) [compound 7] | 82.44% |  | 0.02 nM | 670 nM | 0.026 nM | 0.103 nM | 0.868 nM | 83.5% |
| 8 (sense mA*mA*fGmUmGmUfCfUfAmGmUfCmAmAmCmUfUmAmA; antisense mU*fU*mAmAmGmUmUmGmAmCmUmAmGfAmCmAmCmUmU*mU*mU; siRNA) [compound 8] | 82.24% |  | 0.16 nM | 717 nM | 0.0889 nM | 0.271 nM |  | 76.2% |
| 9 (sense mC*mU*fAmUmGmAfCfGfUmUmGfCmCmCmUmGfAmUmA; antisense mU*fA*mUmCmAmGmGmGmCmAmAmCmGfUmCmAmUmAmG*mU*mU; siRNA) [compound 9] | 82.07% | 0.01 nM | 0.27 nM | 142 nM |  |  |  |  |
| 10 (sense mC*mU*fCmGmGmUfUfCfCmUmUfUmGmUmAmCfUmGmA; antisense mU*fC*mAmGmUmAmCmAmAmAmGmGmAfAmCmCmGmAmG*mU*mU; siRNA) [compound 10] | 81.72% | 0.43 nM | 1.7 nM | 31.6 nM |  |  |  |  |
| 11 (sense mA*mC*fCmAmUmAfGfAfAmGmGfAmGmUmCmGfAmUmA; antisense mU*fA*mUmCmGmAmCmUmCmCmUmUmCfUmAmUmGmGmU*mU*mU; siRNA) [compound 11] | 81.08% | 0.01 nM | 0.26 nM | 2350 nM |  |  |  |  |
| 12 (sense mG*mG*fAmUmUmAfUfCfUmGmGfAmUmGmUmCfUmAmA; antisense mU*fU*mAmGmAmCmAmUmCmCmAmGmAfUmAmAmUmCmC*mU*mU; siRNA) [compound 12] | 80.54% | 0.13 nM | 0.89 nM | 183 nM |  |  |  |  |
| 13 (sense mA*mC*fGmUmUmGfCfCfCmUmGfAmUmCmAmAfGmCmA; antisense mU*fG*mCmUmUmGmAmUmCmAmGmGmGfCmAmAmCmGmU*mU*mU; siRNA) [compound 13] | 80.41% | 0.06 nM | 0.69 nM | 1340 nM |  |  |  |  |
| 14 (sense mG*mG*fAmGmCmCfAfAfAmAmAfGmUmGmUmCfUmAmA; antisense mU*fU*mAmGmAmCmAmCmUmUmUmUmUfGmGmCmUmCmC*mU*mU; siRNA) [compound 14] | 79.20% | 0.22 nM | 1.3 nM |  |  |  |  |  |
| 15 (sense mC*mC*fGmAmUmUfAfCfCmAmCfAmAmGmCmAfAmCmA; antisense mU*fG*mUmUmGmCmUmUmGmUmGmGmUfAmAmUmCmGmG*mU*mU; siRNA) [compound 15] | 78.63% | 1.7 nM | 6.31 nM |  |  |  |  |  |
| 16 (sense mA*mA*fUmGmCmAfGfAfCmUmGfGmGmUmCmAfCmGmA; antisense mU*fC*mGmUmGmAmCmCmCmAmGmUmCfUmGmCmAmUmU*mU*mU; siRNA) [compound 16] | 77.05% | 0.01 nM | 0.3 nM |  |  |  |  |  |
| 17 (sense mC*mU*fCmAmCmGfCfCfCmGmAfGmAmCmUmUfUmCmA; antisense mU*fG*mAmAmAmGmUmCmUmCmGmGmGfCmGmUmGmAmG*mU*mU; siRNA) [compound 17] | 75.50% | 0.07 nM | 0.85 nM |  |  |  |  |  |
| 18 (sense mC*mA*fGmCmGmAfUfCfUmGmUfGmAmCmAmAfCmGmA; antisense mU*fC*mGmUmUmGmUmCmAmCmAmGmAfUmCmGmCmUmG*mU*mU; siRNA) [compound 18] | 75.45% | 0.3 nM | 2.02 nM |  |  |  |  |  |
| 19 (sense mC*mU*fAmCmCmAfCfUfUmGmCfCmAmGmCmAfAmCmA; antisense mU*fG*mUmUmGmCmUmGmGmCmAmAmGfUmGmGmUmAmG*mU*mU; siRNA) [compound 19] | 74.03% | 0.16 nM | 1.12 nM |  |  |  |  |  |
| 20 (sense mU*mU*fUmAmUmGfAfCfUmAmUfGmAmCmGmUfUmGmA; antisense mU*fC*mAmAmCmGmUmCmAmUmAmGmUfCmAmUmAmAmA*mU*mU; siRNA) [compound 20] | 74.02% | 1.1 nM | 3.52 nM |  |  |  |  |  |
| 21 (sense mC*mC*fUmUmGmAfUfAfGmUmUfCmAmCmAmAfGmAmA; antisense mU*fU*mCmUmUmGmUmGmAmAmCmUmAfUmCmAmAmGmG*mU*mU; siRNA) [compound 21] | 72.43% | 0.12 nM | 1.63 nM |  |  |  |  |  |
| 22 (sense mC*mU*fCmAmAmGfAfGfGmUmGfGmCmCmGmAfAmGmA; antisense mU*fC*mUmUmCmGmGmCmCmAmCmCmUfCmUmUmGmAmG*mU*mU; siRNA) [compound 22] | 72.01% | 0.32 nM | 2.09 nM |  |  |  |  |  |
| 23 (sense mU*mU*fUmUmAmUfGfAfCmUmAfUmGmAmCmGfUmUmA; antisense mU*fA*mAmCmGmUmCmAmUmAmGmUmCfAmUmAmAmAmA*mU*mU; siRNA) [compound 23] | 68.74% | 0.22 nM | 2.44 nM |  |  |  |  |  |
| 24 (sense mU*mU*fCmCmGmAfCfUfUmCmUfCmCmAmAmGfAmGmA; antisense mU*fC*mUmCmUmUmGmGmAmGmAmAmGfUmCmGmGmAmA*mU*mU; siRNA) [compound 24] | 61.56% | 0.51 nM | 2.76 nM |  |  |  |  |  |

— patent US20250075209A1, “RNAS FOR COMPLEMENT INHIBITION” (Apellis Pharmaceuticals, Inc., priority 2021, published 2025)
